Test results reported in patent US9283261B2, “Linaclotide compositions” (Forest Laboratories Holdings Ltd., priority 2012, dated 2016).
Bridge positions count the residues as written; N and C are the ends. Peptide text beside a SMILES is read from it.

Legend:
[1] = stability of linaclotide compositions with formaldehyde scavenger compounds, Cys1-IMD by RP-HPLC; format: physicochemical; details: 40° C., 75% relative humidity; for % Cys1-IMD after storage 4 Weeks / % Cys1-IMD after storage 8 Weeks / % Cys1-IMD after storage 13 Week: percent of chromatogram area, labeled canister (formaldehyde stressor); for % decrease in Cys1-IMD as compared to negative control (after 13 weeks) / % Cys1-IMD after storage 13 Week: 13 weeks
Experimental: 60 cc square HPDE bottle (with 33 mm caps with induction seals) were loaded with (i) capsules containing beads coated with 145 μg or 290 μg of linaclotide, a binder, calcium chloride and leucine with an approximate molar ratio of CaCl2:leucine:linaclotide of 60:30:1, (ii) either no formaldehyde scavenger compound (negative control) or a canister comprising one of the formaldehyde scavenger compounds disclosed in Table 3, and (iii) optionally a canister containing 3 grams of a silica gel desiccant.
In addition, some of the linaclotide compositions contained a formaldehyde stressor (in particular, an adhesive label on the desiccant canister that was applied by the manufacturer of the desiccant canister (Sud Chemie) (its presence in some linaclotide compositions is indicated in the table as “labeled canister”). Regarding the formaldehyde stressor canister, it was observed by applicants that the canister emits about 27.5 ug of formaldehyde in 24 hours at 60° C.
The linaclotide compositions were stored in a 40° C., 75% relative humidity stability chamber. Next, the quantity of Cys1-IMD in each linaclotide composition was determined following 4, 8 and 13 week storage via Reverse Phase-HPLC using a gradient elution with UV detection at 220 nm. Quantitation was based on percent of chromatogram area.
Test samples of linaclotide capsules are prepared by emptying the bead contents into flasks, adding diluent and shaking for 30 minutes. The analysis used the bead contents of a composite of 6 or 8 capsules (for 290 μg and 145 μg, respectively). Operating conditions for the analytical test method by HPLC are outlined in Table 2.

[2] = tested on: adult patients with IBS-C; assay: double-blind placebo-controlled studies in IBS-C (Study 1 and Study 2); format: in vivo, human; details: 290 mcg discontinued
Experimental: In this regard, the efficacy of oral dosage forms comprising […] for the management of IBS-C was established in two double-blind, placebo-controlled, randomized, multicenter studies in adult patients. A total of 800 patients in Study 1 and 804 patients in Study 2 (overall mean age of 43.9 years [range 18-87 years with 5.3% ≧65 years of age], 90.1% female, 77.4% white, 18.8% black, and 12.0% Hispanic) received treatment with LINZESS 290 mcg or placebo once daily and were evaluated for efficacy. All patients met Rome II criteria for IBS and were required to report a mean abdominal pain score of ≧3 on a 0-to-10-point numeric rating scale, <3 complete spontaneous bowel movements (CSBMs; a CSBM is a spontaneous bowel movement [SBM] that is associated with a sense of complete evacuation; an SBM is a bowel movement occurring in the absence of laxative use), and ≦5 SBMs per week during a 2-week baseline period. The study designs were identical through the first 12 weeks, and thereafter differed only in that Study 1 included a 4-week randomized withdrawal (RW) period, and Study 2 continued for 14 additional weeks (total of 26 weeks) of double-blinded treatment.
Efficacy of the oral dosage form of linaclotide was assessed using responder and change-from-baseline endpoints. Results for endpoints were based on information provided daily by patients. […]

% Cys1-IMD after storage 4 Weeks [1] [%]	% Cys1-IMD after storage 8 Weeks [1] [%]	% decrease in Cys1-IMD as compared to negative control (after 13 weeks) [1] [%]	% Cys1-IMD after storage 13 Week [1] [%]	SMILES	rebound of bowel symptoms after discontinuation (4-week RW period) [2]
0.60	0.68	−72	1.00	N[C@@H](Cc1c[nH]cn1)C(=O)O [histidine]	–
0.84	1.26	−31	2.44	CC(C)C[C@H](N)C(=O)O [leucine]	–
0.52	0.78	−61	1.36	CC(C)C[C@H](N)C(=O)O [lyophilized leucine, leucine]	–

More lines, now with the values behind:

SMILES	% Cys1-IMD after storage 4 Weeks [1] [%]	% Cys1-IMD after storage 8 Weeks [1] [%]	% decrease in Cys1-IMD as compared to negative control (after 13 weeks) [1] [%]	% Cys1-IMD after storage 13 Week [1] [%]	rebound of bowel symptoms after discontinuation (4-week RW period) [2]
NC(=O)C[C@H](N)C(=O)O [asparagine]	0.56	1.11	−59	1.45	–
COC(=O)[C@H](Cc1ccccc1)NC(=O)[C@@H](N)CC(=O)O [aspartame] (H-Asp-Phe-OMe)	0.82	1.54	−27	2.58	–
CNC[C@H](O)[C@@H](O)[C@H](O)[C@H](O)CO [d-meglumine]	0.59	0.81	−76	0.84	–
NCC(=O)NCC(=O)O [glycine-glycine] (H-Gly-Gly-OH)	0.89	1.40	−44	1.98	–
C[C@@H]1NC(=O)[C@@H]2CCCN2C(=O)[C@H](CC(N)=O)NC(=O)[C@@H]2CSSC[C@H](N)C(=O)N[C@H]3CSSC[C@H](NC1=O)C(=O)N[C@@H]([C@@H](C)O)C(=O)NCC(=O)N[C@H](C(=O)N[C@@H](Cc1ccc(O)cc1)C(=O)O)CSSC[C@H](NC(=O)[C@H](Cc1ccc(O)cc1)NC(=O)[C@H](CCC(=O)O)NC3=O)C(=O)N2 [linaclotide] (H-CCEYCCNPACTGCY-OH; disulfide 1-6, 2-10, 5-13 (inferred); N-terminus and C-terminus assumed)	–	–	–	–	no evidence of rebound worsening
NCCCC[C@H](N)C(=O)O [lysine]	0.87	1.27	−47	1.87	–
